Broadly, the IC50 is the concentration that gives 50% inhibition.

Chain of Recombinant human cathepsin A (P10619 29-326): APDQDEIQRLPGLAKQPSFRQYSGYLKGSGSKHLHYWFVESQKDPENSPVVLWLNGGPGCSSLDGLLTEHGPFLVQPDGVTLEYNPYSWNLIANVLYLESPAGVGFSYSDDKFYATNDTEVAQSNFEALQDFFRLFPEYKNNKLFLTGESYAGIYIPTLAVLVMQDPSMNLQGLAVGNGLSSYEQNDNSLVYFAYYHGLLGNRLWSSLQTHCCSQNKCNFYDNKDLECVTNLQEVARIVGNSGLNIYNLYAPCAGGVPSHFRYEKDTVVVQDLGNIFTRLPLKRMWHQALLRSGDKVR
Chain of Recombinant human cathepsin A (P10619 327-480): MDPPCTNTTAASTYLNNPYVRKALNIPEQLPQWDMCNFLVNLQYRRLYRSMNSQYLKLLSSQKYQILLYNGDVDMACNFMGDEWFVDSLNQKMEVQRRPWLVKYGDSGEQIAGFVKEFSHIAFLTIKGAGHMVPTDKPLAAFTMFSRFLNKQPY

One test concerns the target Recombinant human cathepsin A (Homo sapiens (Human), UniProt P10619). Briefly: Cathepsin A inhibitory activity (cleavage of Bodipy FL-labeled bradykinin, microfluidic capillary electrophoresis). As to conditions: read-out: Activity (Cathepsin A inhibitory activity, IC50). It counts as biochemical.
On to `O=C(O)C[C@H](NC(=O)c1cccc(-c2ccccc2Cl)n1)c1ccccc1C(F)(F)F` [compound 612], for which the IC50 was determined as 1.66 µM.
As for `O=C(O)CC(NC(=O)c1cc(-c2ccccc2)nc(N2CCCCC2)n1)c1ccccc1Cl` (stereo not drawn) [compound 616, 3-(2-Chloro-phenyl)-3-[(6-phenyl-2-piperidin-1-yl-pyrimidine-4-carbonyl)-amino]-propionic acid], the IC50 was 10.4 µM.

The test is the same for the next values; noted with them: read-out: Activity (IC50, cathepsin A inhibition).
For `COc1ccc(C(=O)N[C@@H](CC(=O)O)c2ccccc2Cl)nc1-c1cc(C)ccc1Cl` [compound 492], the IC50 is 1.05 µM.
Still for that read-out and setting: then `Cc1ccc([C@H](CC(=O)O)NC(=O)c2cccc(-c3ccccc3Cl)n2)cc1` [compound 580], with 15.6 µM; and `Cc1cccc([C@H](CC(=O)O)NC(=O)c2cccc(-c3ccccc3F)n2)c1` [compound 560], with 12.9 µM; and `O=C(O)CC(NC(=O)c1cccc(Br)n1)c1ccccc1Cl` (stereo not drawn) [compound 562], with 2.1 µM.
Still for that read-out and setting: the value for `COc1ccc(C(=O)N[C@@H](CC(=O)O)c2ccccc2Cl)nc1-c1cccc(C(C)(C)O)c1` [compound 496] was 2.86 µM.
For `O=C(O)CC(NC(=O)c1ncccc1F)c1ccccc1Cl` (stereo not drawn) [compound 530], the IC50 is 5.27 µM.
Same read-out and setting: the value for `O=C(O)CC(NC(=O)c1ccc(Oc2ccccc2)nc1)c1ccccc1Cl` (stereo not drawn) [compound 585] was 8.67 µM; that for `CCc1ccnc(C(=O)NC(CC(=O)O)c2ccccc2Cl)c1` (stereo not drawn) [compound 532] was 10.2 µM.
On the same count and under the same terms, then `COc1ccc(C(=O)NC(CC(=O)O)c2ccccc2Cl)nc1Cl` (stereo not drawn) [compound 550], with 1.08 µM.
On to `O=C(O)CC(NC(=O)c1cccc(Cl)n1)c1ccccc1Cl` (stereo not drawn) [compound 540], for which the IC50 was determined as 1.6 µM.
Take `COc1ccc(-c2cccc(C(=O)NC(CC(=O)O)c3ccccc3Cl)n2)cc1` (stereo not drawn) [compound 595]: the IC50 is 1.42 µM.
For `CC(C)Cc1cc(C(=O)NC(CC(=O)O)c2ccccc2Cl)nc(N)n1` (stereo not drawn) [compound 557], the IC50 stood at 14 µM.

The same test, now with this note: read-out: Activity (IC50, cathepsin A inhibitory activity).
`Cc1ccccc1[C@H](CC(=O)O)NC(=O)c1cncc(-c2ccc(Cl)cc2Cl)c1` [compound 61]: the IC50 came to 5.14 µM.
On the same count and under the same terms, then `COc1ncc(C(=O)N[C@@H](CC(=O)O)c2ccccc2Cl)cc1-c1ccc(F)cc1C` [compound 404], with 7.14 µM.
With `CNc1cncc(C(=O)N[C@@H](CC(=O)O)c2ccccc2C)n1` [compound 12], the IC50 was found to be 7.32 µM.
The same measure, in the same setting: then `COc1ccc(C(=O)N[C@@H](CC(=O)O)c2ccccc2F)nc1-c1ccc(C)cc1C` [compound 291], with 4.02 µM.
`COc1ccc(C(=O)N[C@@H](CC(=O)O)c2ccccc2C)nc1-c1ccc(C#N)cc1` [compound 465]: the IC50 turned out to be 6.8 µM.
Regarding `COc1ccc(C(=O)N[C@@H](CC(=O)O)c2ccccc2F)nc1-c1cccc(C#N)c1` [compound 273], the IC50 was 9.57 µM.
On to `COc1ccc(C(=O)N[C@@H](CC(=O)O)c2ccc(C)cc2)nc1-c1ccc(Cl)c(F)c1` [compound 246], for which the IC50 was found to be 4.48 µM.
In the case of `Cc1ccccc1[C@H](CC(=O)O)NC(=O)c1ccnc(-c2ccccc2F)c1` [compound 97], the IC50 worked out at 2.71 µM.
Still for that read-out and setting: then `COc1ccc(C(=O)N[C@@H](CC(=O)O)c2ccc(C)cc2)nc1-c1cc(C)cnc1Cl` [compound 247], with 8.43 µM; and `COc1ccc(C(=O)N[C@@H](CC(=O)O)c2ccccc2F)nc1-c1cccc(C)c1` [compound 269], with 1.01 µM; and `COc1ccc(C(=O)N[C@@H](CC(=O)O)c2ccccc2F)nc1-c1cc(F)cc(F)c1` [compound 279], with 3.85 µM.
On the same count and under the same terms, then `Cc1ccccc1[C@H](CC(=O)O)NC(=O)c1ncccc1F` [compound 33], with 3.42 µM.
Consider `COc1ccc(C(=O)N[C@@H](CC(=O)O)c2ccccc2F)nc1-c1cc(C(F)(F)F)ccc1F` [compound 304], for which the IC50 worked out at 3.99 µM.
The same measure, in the same setting: then `COc1cccc(-c2cccc(C(=O)N[C@@H](CC(=O)O)c3ccccc3C)n2)c1` [compound 43], with 2.27 µM.
As for `COc1cc(OC)nc(C(=O)N[C@@H](CC(=O)O)c2ccccc2C)n1` [compound 30], the IC50 was 4.21 µM.
Turning to `COc1ccc(C(=O)N[C@@H](CC(=O)O)c2ccccc2Cl)nc1-c1cc(C)cc(Cl)c1` [compound 483], the IC50 was 9.49 µM.
With `Cc1ccnc(C(=O)N[C@@H](CC(=O)O)c2ccccc2C)c1` [compound 14], the IC50 turned out to be 4.35 µM.
Same read-out and setting: then `COc1ncc(C(=O)N[C@@H](CC(=O)O)c2ccccc2C)cc1-c1ccc(F)c(F)c1` [compound 425], with 8.84 µM.
Still for that read-out and setting: then `Cc1ccccc1[C@H](CC(=O)O)NC(=O)c1ccc2nc[nH]c2n1` [compound 34], with 5.07 µM; and `COc1ccc(C(=O)N[C@@H](CC(=O)O)c2ccccc2F)nc1-c1cccnc1` [compound 284], with greater than 10 µM; and `COc1ccc(C(=O)N[C@@H](CC(=O)O)c2ccccc2Cl)nc1-c1ccnc(N2CCOCC2)c1` [compound 490], with 9.08 µM.
In the case of `Cc1ccccc1[C@H](CC(=O)O)NC(=O)c1cncc(-c2ccc(F)cc2F)c1` [compound 73], the IC50 came to 3.25 µM.
Still for that read-out and setting: the value for `COc1ccc(C(=O)N[C@@H](CC(=O)O)c2ccc(C)cc2)nc1-c1ccc(F)nc1` [compound 227] was 7.63 µM; that for `COc1ccc(F)c(-c2nc(C(=O)N[C@@H](CC(=O)O)c3ccc(C)cc3)ccc2OC)c1` [compound 239] was 1.16 µM.
Same read-out and setting: the value for `Cc1ccccc1[C@H](CC(=O)O)NC(=O)c1ccc2cnccc2n1` [compound 17] was 3.09 µM.
The same measure, in the same setting: then `COc1ccc(C(=O)N[C@@H](CC(=O)O)c2ccccc2Cl)nc1-c1c(C)nn(C)c1C` [compound 486], with 4.95 µM; and `COc1ccc(C(=O)N[C@@H](CC(=O)O)c2ccccc2Cl)nc1-c1cccc(-c2ccccc2)c1` [compound 436], with 2.97 µM; and `COc1ccc(C(=O)N[C@@H](CC(=O)O)c2ccccc2F)nc1-c1ccc(F)c(C)c1` [compound 292], with 4.13 µM.
As to `COc1ccc(C(=O)N[C@@H](CC(=O)O)c2ccccc2Cl)nc1-c1cccc(-c2nnc(C)o2)c1` [compound 484], the IC50 stood at 6.69 µM.
On the same count and under the same terms, the value for `COc1ccc(C(=O)N[C@@H](CC(=O)O)c2ccccc2Cl)nc1-c1ccc(F)c(F)c1` [compound 440] was 1.96 µM.
Turning to `COc1ccc(Cl)cc1-c1nc(C(=O)N[C@@H](CC(=O)O)c2ccc(C)cc2)ccc1OC` [compound 233], the IC50 amounted to 2.24 µM.
Still for that read-out and setting: the value for `COc1ncc(C(=O)N[C@@H](CC(=O)O)c2ccccc2C)cc1-c1cccc(F)c1` [compound 414] was 8.07 µM.

Staying with this test, now noted: read-out: Activity [μM] (IC50, cathepsin A inhibitory activity).
In the case of `COc1ccc(C(=O)N[C@@H](CC(=O)O)c2ccc(C)cc2)nc1-c1cc(F)cc(F)c1` [compound 207], the IC50 stood at 2.65 µM.
Still for that read-out and setting: the value for `COc1ccc(C(=O)N[C@@H](CC(=O)O)c2ccccc2C)nc1-c1cccc(C#N)c1` [compound 359] was 4.49 µM.
For the molecule `COc1ccc(C(=O)N[C@@H](CC(=O)O)c2ccccc2C)nc1-c1ccc(C)o1` [compound 376], the IC50 was found to be 6.1 µM.
Same read-out and setting: then `Cc1ccccc1[C@H](CC(=O)O)NC(=O)c1cccc(-c2cccc(C#N)c2)n1` [compound 145], with 7.46 µM; and `Cc1ccc(-c2cccc(C(=O)N[C@@H](CC(=O)O)c3ccccc3C)n2)cc1` [compound 137], with 1.24 µM.
The same measure, in the same setting: the value for `COc1ncc(C(=O)N[C@@H](CC(=O)O)c2ccccc2Cl)cc1-c1cccc(Cl)c1` [compound 392, (S)-3-(2-Chloro-phenyl)-3-{[5-(3-choro-phenyl)-6-methoxy-pyridine-3-carbonyl]-amino}-propionic acid] was 10.3 µM; that for `COc1ccc(C(=O)N[C@@H](CC(=O)O)c2ccc(C)cc2)nc1-c1ccc(C(C)=O)s1` [compound 210] was 7.52 µM.
Same read-out and setting: the value for `COc1ccc(C(=O)N[C@@H](CC(=O)O)c2ccccc2C)nc1-c1ccc(F)c(Cl)c1` [compound 349] was 1.46 µM; that for `COc1ncc(C(=O)N[C@@H](CC(=O)O)c2ccccc2Cl)cc1-c1cccc(C)c1` [compound 395] was 6.57 µM.
Turning to `Cc1ccccc1[C@H](CC(=O)O)NC(=O)c1cccc(-c2ccc3c(c2)OCO3)n1` [compound 152], the IC50 is 1.55 µM.
As for `COc1ccc(C(=O)N[C@@H](CC(=O)O)c2ccc(C)cc2)nc1-c1ccc(F)cc1` [compound 185], the IC50 amounted to 1.29 µM.
On the same count and under the same terms, then `COc1ccc(C(=O)N[C@@H](CC(=O)O)c2ccccc2C)nc1-c1ccc(F)nc1` [compound 373], with 1.6 µM; and `COc1ccc(C(=O)N[C@@H](CC(=O)O)c2ccccc2C)nc1-c1cccc(C2(O)COC2)c1` [compound 384], with 2.39 µM; and `COc1ccc(C(=O)N[C@@H](CC(=O)O)c2ccccc2F)nc1-c1cccc(F)c1Cl` [compound 324], with 1.27 µM.
On to `Cc1ccccc1[C@H](CC(=O)O)NC(=O)c1cccc(-c2ccccc2C#N)n1` [compound 157], for which the IC50 was 2.46 µM.
Same read-out and setting: then `COc1ccc(C(=O)N[C@@H](CC(=O)O)c2ccccc2C)nc1-c1cncnc1` [compound 372], with 8.88 µM; and `COc1ccc(C(=O)N[C@@H](CC(=O)O)c2ccc(C)cc2)nc1-c1ccc(F)c(F)c1` [compound 208], with 7.42 µM; and `Cc1ccc(-c2cncc(C(=O)N[C@@H](CC(=O)O)c3ccccc3C)c2)c(C)c1` [compound 117], with 5.27 µM.
The same measure, in the same setting: then `COc1ccc(C(=O)N[C@@H](CC(=O)O)c2ccccc2C)nc1-c1ccc(C)c(F)c1` [compound 370], with 1.58 µM; and `Cc1ccccc1[C@H](CC(=O)O)NC(=O)c1cccc(-c2cccc(C(C)(C)O)c2)n1` [compound 176, (S)-3-({6-[3-(1-Hydroxy-1-methyl-ethyl)-phenyl]-pyridine-2-carbonyl}-amino)-3-o-tolyl-propionic acid], with 3.32 µM.
Take `Cc1ccccc1[C@H](CC(=O)O)NC(=O)c1cccc(-c2ccc(F)cc2)n1` [compound 135]: the IC50 came to 1.18 µM.
Regarding `Cc1ccccc1[C@H](CC(=O)O)NC(=O)c1cccc(-c2ccc(C#N)cc2)n1` [compound 146], the IC50 came out at 2.16 µM.
On the same count and under the same terms, then `Cc1ccccc1[C@H](CC(=O)O)NC(=O)c1cccc(-c2cccc(F)c2C)n1` [compound 172], with 3.21 µM.

Source of the values: patent US9029559B2, “Substituted 3-heteroaroylamino-propionic acid derivatives and their use as pharmaceuticals” (SANOFI, priority 2011, dated 2015).
